{
  "source": "patent US6525001B1",
  "about": "“Substituted pyrimidine and pyridine herbicides” (Mid-American Commercialization Corporation, priority 1997, dated 2003)",
  "type_in_all_cases": "in vivo",
  "parameters_in_all_cases": "key: 0 is no effect; 10 is complete control",
  "key": {"[1]": {"tested_on": "velvetleaf (Abutilon theophrasti)", "assay": "Test B pre-/postemergence", "details": "for Velvetleaf plant response rating: Postemergence", "method_in_brief": "(§1)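 Compounds in a surfactant-containing, non-phytotoxic solvent blend are applied to freshly planted seed (preemergence) and, concurrently, to seedlings of 2 to 18 cm at 1–4 leaves (postemergence). Plants stay in the greenhouse twelve to sixteen days and are then scored visually from 0 (no effect) to 10 (complete control).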"}, "[2]": {"tested_on": "giant foxtail (Setaria faberii)", "assay": "Test B pre-/postemergence", "details": "for Plant response rating, Giant foxtail: Preemergence; for Giant foxtail plant response rating: Postemergence", "method_in_brief": "as §1"}, "[3]": {"tested_on": "bedstraw (Galium aparine)", "assay": "Test B pre-/postemergence", "details": "for Plant response rating, Bedstraw: Preemergence; for Bedstraw plant response rating: Postemergence", "method_in_brief": "as §1"}, "[4]": {"tested_on": "momingglory (Ipomoea hederacea)", "assay": "Test B pre-/postemergence", "details": "for Plant response rating, Morningglory: Preemergence; for Morningglory plant response rating: Postemergence", "method_in_brief": "as §1"}, "corn (Zea mays)": {"tested_on": "corn (Zea mays)", "assay": "Test B pre-/postemergence", "details": "for Plant response rating, Corn: Preemergence; for Corn plant response rating: Postemergence", "method_in_brief": "as §1"}, "[5]": {"tested_on": "blackgrass (Alopecurus myosuroides)", "assay": "Test B pre-/postemergence", "details": "for Plant response rating, Blackgrass: Preemergence; for Blackgrass plant response rating: Postemergence", "method_in_brief": "as §1"}, "[6]": {"tested_on": "broadleaf signalgrass (Brachiaria decumbens)", "assay": "Test B pre-/postemergence", "method_in_brief": "as §1"}, "[7]": {"tested_on": "cocklebur (Xanthium strumarium)", "assay": "Test B pre-/postemergence", "details": "for Plant response rating, Cocklebur: Preemergence; for Cocklebur plant response rating: Postemergence", "method_in_brief": "as §1"}, "[8]": {"tested_on": "purple nutsedge (Cyperus rotundus)", "assay": "Test B pre-/postemergence", "details": "for Plant response rating, Nutsedge: Preemergence", "method_in_brief": "as §1"}, "[9]": {"tested_on": "sugar beet (Beta vulgaris)", "assay": "Test B pre-/postemergence", "details": "for Plant response rating, Sugarbeets: Preemergence; for Sugarbeets plant response rating: Postemergence", "method_in_brief": "as §1"}, "rape (Brassica napus)": {"tested_on": "rape (Brassica napus)", "assay": "Test B pre-/postemergence", "details": "for Plant response rating, Rape: Preemergence; for Rape plant response rating: Postemergence", "method_in_brief": "as §1"}, "[10]": {"tested_on": "pigweed (Amaranthus retroflexus)", "assay": "Test B pre-/postemergence", "details": "for Plant response rating, Redroot pigweed: Preemergence; for Redroot pigweed plant response rating: Postemergence", "method_in_brief": "as §1"}, "[11]": {"tested_on": "crabgrass (Digitaria sanguinalis)", "assay": "Test B pre-/postemergence", "details": "for Plant response rating, Crabgrass: Preemergence; for Crabgrass plant response rating: Postemergence", "method_in_brief": "as §1"}, "wild oat (Avena fatua)": {"tested_on": "wild oat (Avena fatua)", "assay": "Test B pre-/postemergence", "details": "for Plant response rating, Wild oats: Preemergence; for Wild oats plant response rating: Postemergence", "method_in_brief": "as §1"}, "soybean (Glycine max)": {"tested_on": "soybean (Glycine max)", "assay": "Test B pre-/postemergence", "details": "for Plant response rating, Soybean: Preemergence; for Soybean plant response rating: Postemergence", "method_in_brief": "as §1"}, "[12]": {"tested_on": "wheat (Triticum aestivum)", "assay": "Test B pre-/postemergence", "details": "for Plant response rating, Wheat: Preemergence; for Wheat plant response rating: Postemergence", "method_in_brief": "as §1"}, "rice (Oryza sativa)": {"tested_on": "rice (Oryza sativa)", "assay": "Test B flood test", "method_in_brief": "(§2)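 Read-out is a visual response score from 0 (no effect) to 10 (complete control), assigned by comparison with untreated controls. Treatment was applied at the 2-leaf stage, and plants stayed in the greenhouse for twelve to sixteen days before scoring.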"}, "[13]": {"tested_on": "bamyardgrass (Echinochloa crus-galli)", "assay": "Test B flood test", "method_in_brief": "as §2"}, "[14]": {"tested_on": "duck salad (Heteranthera limosa)", "assay": "Test B flood test", "method_in_brief": "as §2"}, "[15]": {"tested_on": "smallflower flatsedge (Cyperus difformis)", "assay": "Test B flood test", "method_in_brief": "as §2"}, "[16]": {"details": "Rate 62 g/ha, Postemergence (flood test)"}, "[17]": {"details": "Rate 125 g/ha, Postemergence section (flood test species)"}},
  "data": [
    {"smiles": "CCc1cnc(-n2ccc(C(F)(F)F)n2)nc1C(=O)c1cccc(C(F)(F)F)c1", "note": "[Compound 69]", "values": [
      {"measurement": "Velvetleaf plant response rating", "setting": "[1]; Rate 62 g/ha", "value": 8},
      {"measurement": "Velvetleaf plant response rating", "setting": "[1]; Rate 125 g/ha", "value": 8},
      {"measurement": "Plant response rating, Velvetleaf", "setting": "[1]; Rate 125 g/ha, Preemergence", "value": 8},
      {"measurement": "Plant response rating, Giant foxtail", "setting": "[2]; Rate 62 g/ha, scale of 0 to 10", "value": 4},
      {"measurement": "Giant foxtail plant response rating", "setting": "[2]; Rate 62 g/ha", "value": 2},
      {"measurement": "Giant foxtail plant response rating", "setting": "[2]; Rate 125 g/ha", "value": 3},
      {"measurement": "Plant response rating, Giant foxtail", "setting": "[2]; Rate 125 g/ha", "value": 8},
      {"measurement": "Plant response rating, Bedstraw", "setting": "[3]; Rate 62 g/ha, scale of 0 to 10", "value": 7},
      {"measurement": "Bedstraw plant response rating", "setting": "[3]; Rate 62 g/ha", "value": 9},
      {"measurement": "Bedstraw plant response rating", "setting": "[3]; Rate 125 g/ha", "value": 9},
      {"measurement": "Plant response rating, Bedstraw", "setting": "[3]; Rate 125 g/ha", "value": 9},
      {"measurement": "Plant response rating, Morningglory", "setting": "[4]; Rate 62 g/ha, scale of 0 to 10", "value": 8},
      {"measurement": "Morningglory plant response rating", "setting": "[4]; Rate 62 g/ha", "value": 9},
      {"measurement": "Morningglory plant response rating", "setting": "[4]; Rate 125 g/ha", "value": 10},
      {"measurement": "Plant response rating, Morningglory", "setting": "[4]; Rate 125 g/ha", "value": 8},
      {"measurement": "Plant response rating, Corn", "setting": "corn (Zea mays); Rate 62 g/ha, scale of 0 to 10", "value": 0},
      {"measurement": "Corn plant response rating", "setting": "corn (Zea mays); Rate 62 g/ha", "value": 2},
      {"measurement": "Corn plant response rating", "setting": "corn (Zea mays); Rate 125 g/ha", "value": 2},
      {"measurement": "Plant response rating, Corn", "setting": "corn (Zea mays); Rate 125 g/ha", "value": 0},
      {"measurement": "Plant response rating, Blackgrass", "setting": "[5]; Rate 62 g/ha, scale of 0 to 10", "value": 1},
      {"measurement": "Blackgrass plant response rating", "setting": "[5]; Rate 62 g/ha", "value": 2},
      {"measurement": "Blackgrass plant response rating", "setting": "[5]; Rate 125 g/ha", "value": 3},
      {"measurement": "Plant response rating, Blackgrass", "setting": "[5]; Rate 125 g/ha", "value": 4},
      {"measurement": "B. signalgrass plant response rating", "setting": "[6]; Rate 62 g/ha, Postemergence", "value": 3},
      {"measurement": "B. signalgrass plant response rating", "setting": "[6]; Rate 62 g/ha, Preemergence", "value": 8},
      {"measurement": "B. signalgrass plant response rating", "setting": "[6]; Rate 125 g/ha, Postemergence", "value": 3},
      {"measurement": "Plant response rating, B. signalgrass", "setting": "[6]; Rate 125 g/ha, Preemergence", "value": 9},
      {"measurement": "Plant response rating, Cocklebur", "setting": "[7]; Rate 62 g/ha, scale of 0 to 10", "value": 0},
      {"measurement": "Cocklebur plant response rating", "setting": "[7]; Rate 62 g/ha", "value": 8},
      {"measurement": "Cocklebur plant response rating", "setting": "[7]; Rate 125 g/ha", "value": 8},
      {"measurement": "Plant response rating, Cocklebur", "setting": "[7]; Rate 125 g/ha", "value": 2},
      {"measurement": "Plant response rating, Nutsedge", "setting": "[8]; Rate 62 g/ha, scale of 0 to 10", "value": 0},
      {"measurement": "Nutsedge plant response rating", "setting": "[8]; Rate 62 g/ha, Postemergence", "value": 2},
      {"measurement": "Plant response rating, Nutsedge", "setting": "[8]; Rate 125 g/ha", "value": 0},
      {"measurement": "Plant response rating, Sugarbeets", "setting": "[9]; Rate 62 g/ha, scale of 0 to 10", "value": 9},
      {"measurement": "Sugarbeets plant response rating", "setting": "[9]; Rate 62 g/ha", "value": 10},
      {"measurement": "Sugarbeets plant response rating", "setting": "[9]; Rate 125 g/ha", "value": 10},
      {"measurement": "Plant response rating, Sugarbeets", "setting": "[9]; Rate 125 g/ha", "value": 9},
      {"measurement": "Plant response rating, Rape", "setting": "rape (Brassica napus); Rate 62 g/ha, scale of 0 to 10", "value": 7},
      {"measurement": "Rape plant response rating", "setting": "rape (Brassica napus); Rate 62 g/ha", "value": 6},
      {"measurement": "Rape plant response rating", "setting": "rape (Brassica napus); Rate 125 g/ha", "value": 8},
      {"measurement": "Plant response rating, Rape", "setting": "rape (Brassica napus); Rate 125 g/ha", "value": 8},
      {"measurement": "Plant response rating, Redroot pigweed", "setting": "[10]; Rate 62 g/ha, scale of 0 to 10", "value": 8},
      {"measurement": "Redroot pigweed plant response rating", "setting": "[10]; Rate 62 g/ha", "value": 10},
      {"measurement": "Redroot pigweed plant response rating", "setting": "[10]; Rate 125 g/ha", "value": 10},
      {"measurement": "Plant response rating, Redroot pigweed", "setting": "[10]; Rate 125 g/ha", "value": 10},
      {"measurement": "Plant response rating, Crabgrass", "setting": "[11]; Rate 62 g/ha, scale of 0 to 10", "value": 6},
      {"measurement": "Crabgrass plant response rating", "setting": "[11]; Rate 62 g/ha", "value": 3},
      {"measurement": "Crabgrass plant response rating", "setting": "[11]; Rate 125 g/ha", "value": 4},
      {"measurement": "Plant response rating, Crabgrass", "setting": "[11]; Rate 125 g/ha", "value": 9},
      {"measurement": "Plant response rating, Wild oats", "setting": "wild oat (Avena fatua); Rate 62 g/ha, scale of 0 to 10", "value": 4},
      {"measurement": "Wild oats plant response rating", "setting": "wild oat (Avena fatua); Rate 62 g/ha", "value": 3},
      {"measurement": "Wild oats plant response rating", "setting": "wild oat (Avena fatua); Rate 125 g/ha", "value": 3},
      {"measurement": "Plant response rating, Wild oats", "setting": "wild oat (Avena fatua); Rate 125 g/ha", "value": 7},
      {"measurement": "Plant response rating, Soybean", "setting": "soybean (Glycine max); Rate 62 g/ha, scale of 0 to 10", "value": 0},
      {"measurement": "Soybean plant response rating", "setting": "soybean (Glycine max); Rate 62 g/ha", "value": 4},
      {"measurement": "Soybean plant response rating", "setting": "soybean (Glycine max); Rate 125 g/ha", "value": 4},
      {"measurement": "Plant response rating, Soybean", "setting": "soybean (Glycine max); Rate 125 g/ha", "value": 1},
      {"measurement": "Plant response rating, Wheat", "setting": "[12]; Rate 62 g/ha, scale of 0 to 10", "value": 1},
      {"measurement": "Wheat plant response rating", "setting": "[12]; Rate 62 g/ha", "value": 3},
      {"measurement": "Wheat plant response rating", "setting": "[12]; Rate 125 g/ha", "value": 4},
      {"measurement": "Plant response rating, Wheat", "setting": "[12]; Rate 125 g/ha", "value": 1},
      {"measurement": "Rice plant response rating", "setting": "rice (Oryza sativa); [16]", "value": 0},
      {"measurement": "Rice plant response rating", "setting": "rice (Oryza sativa); [17]", "value": 2},
      {"measurement": "Barnyardgrass plant response rating", "setting": "[13]; [16]", "value": 1},
      {"measurement": "Barnyardgrass plant response rating", "setting": "[13]; [17]", "value": 2},
      {"measurement": "Ducksalad plant response rating", "setting": "[14]; [16]", "value": 0},
      {"measurement": "Ducksalad plant response rating", "setting": "[14]; [17]", "value": 1},
      {"measurement": "S. Flatsedge plant response rating", "setting": "[15]; [16]", "value": 2},
      {"measurement": "S. Flatsedge plant response rating", "setting": "[15]; [17]", "value": 4}
    ]}
  ]
}
